Data: US20220298196A1, “NOVEL COMPOUND DERIVED FROM WATERMELON, AND COMPOSITION USING SAME” (HAGIHARA FARM PRODUCTION INSTITUTE CO., LTD., priority 2019, published 2022)

Tests used:
[1] = system: p38MAP kinase; experiment: Activation (phosphorylation) of signaling molecule after UV-B irradiation, western blotting; type: cell-based, human; settings: NHDF cells, precultured 24 hours, UV-B 25 mJ/cm2
Experimental: (§1) Since activation of p38MAP kinase, SAPK/JNK, and NF-κB involving in an inflammatory response is deeply involved in the induction and production of MMPs after UV-B irradiation, activation (via phosphorylation) of these signaling molecules was studied by the western blotting method.
(§2) More specifically, the NHDF cells were precultured for 24 hours in the same manner as described above, rinsed with PBS twice, irradiated with UV-B with a light intensity of 25 mJ/cm^2, and subjected to western blotting to examine phosphorylation of p38MAP, SAPK/JNK, and NF-κB.
(§3) The data were shown by average±standard error (n=3). The comparison between multiple groups was performed by using the Tukey-Kramer test method (p<0.05).
(§4) Referring to FIG. 4(b), the horizontal axis of the graph indicates conditions of the samples, that is, the presence/absence of UV-B irradiation (“+”: irradiated with UV, “−”: not irradiated), the presence/absence of 4G3HBE (“+”: presence, “−”: absence), and the presence/absence of 4GBE (“+”: presence, “−”: absence). Further, the vertical axis indicates changes in phosphorylation, that is, a relative ratio of phosphorylation activity. Referring to FIG. 4(b), p38MAP, SAPK/JNK, and phosphorylated NF-κB increased by UV-B irradiation. However, the expression of the signaling molecules was suppressed by the presence of 4G3HBE or 4GBE.

[2] = system: NF-κB; experiment: as above; type: cell-based, human; settings: NHDF cells, precultured 24 hours, UV-B 25 mJ/cm2
Experimental: as §1, §2, §3, §4

[3] = system: SAPK/JNK; experiment: as above; type: cell-based, human; settings: NHDF cells, precultured 24 hours, UV-B 25 mJ/cm2
Experimental: as §1, §2, §3, §4

[4] = DPPH radical scavenging rate (antioxidative effect); type: biochemical; settings: 200 μM DPPH, 30 minutes, absorbance at 520 nm; compared with L-ascorbic acid
Experimental: In order to evaluate the antioxidation ability of the two novel compounds thus isolated, 200 μM DPPH (1,1-diphenyl-2-picrylhydrazyl) dissolved in 50% ethanol was prepared as a reagent. In the preparation procedure of the reagent, DPPH was first dissolved in ethanol, and an equal amount of Milli-Q water was then added to the mixture. Then, the resulting mixture was filtered with a 0.45 μm syringe filter to remove undissolved matters.
A sample solution in a volume of 150 μL and the 200 μM DPPH ethanol solution in a volume of 150 μL were mixed well in a 96-well plate. After the plate was left standing still for 30 minutes, the absorbance at 520 nm was measured using a microplate reader (Thermo Fisher Scientific, Multiscan-LUX). The radical scavenging rate was obtained using the formula (F1).
Note that in the formula, RD (%) represents the radical scavenging rate (%). ODblank520nm represents the absorbance at 520 nm of the reagent (DPPH) to which each of the sample solutions is not added, while ODsample520nm represents the absorbance at 520 nm of the reagent (DPPH) to which each of the sample solutions is added and mixed, followed by being left standing still for 30 minutes.
FIG. 2 is a graph of the result with a photograph of a state of the microplate. […]

[5] = system: MMP-1; experiment: Inhibition of MMP-1 protein expression after UV-B irradiation, western blotting; type: cell-based, human; settings: NHDF cells, 50 or 100 μM, precultured 24 hours, UV-B 25 mJ/cm2, 24 hours after irradiation
Experimental: Normal human dermal fibroblasts-Neo (NHDF, hereinafter, simply referred to as “NHDF cells”) were adjusted at 1×10^5 cells/mL and inoculated in a 12-well multi-well plate in a volume of 1 mL each and cultured to a confluent state. Subsequently, test samples (a final concentration of 50 or 100 μM (of each solvent-fractionated matter) (of each isolated substance)) were added to the cells and the cells were precultured for 24 hours. Subsequently, after rinsing with PBS twice, the cells were irradiated with UV-B with a light intensity of 25 mJ/cm^2.
The cells irradiated with ultraviolet rays were subjected to SDS-PAGE after 24 hours, and then western blotting was performed by transferring to PVDF (polyvinylidene difluoride), thereby detecting protein expression of MMP-1.
Referring to FIG. 3(a), in two columns in an upper part of the photograph, an upper column indicates the presence/absence of UV irradiation (“+”: irradiated with UV, “−”: not irradiated) and a lower column indicates samples (no sample indicated by “−”, 4G3HBE, and 4GBE). Further, a left part of the photograph indicates detection targets (MMP-1 and β-Actin) along a vertical direction. β-Actin is measured as a control.

[6] = system: NHDF cells; experiment: Amount of intracellular reactive oxygen species (ROS), CM-H2DCFDA; type: cell-based, human; settings: 50 μM, precultured 24 hours, UV-B 25 mJ/cm2, 1 hour, control 1%, UV-B alone about 1.7%
Text: In the studies of “Antioxidative effect”, it was confirmed that 4G3HBE and 4GBE had approximately half of the antioxidation activity of vitamin C. On the other hand, according to “Inhibition of MMP-1 expression” and “Activation of signaling molecules”, it was thought that attenuation of the oxidative stress signal was induced by removal of ROS, generated by UV-B irradiation, by the antioxidation ability of 4G3HBE and 4GBE. Thus, the amount of the intracellular reactive oxygen species (ROS) was measured using CM-H2DCFDA, an indicator of ROS.
The NHDF cells (1.0×10^5 cells/mL) were cultured to a confluent state. Subsequently, 4G3HBE and 4GBE were each added to the cells at a final concentration of 50 μM, followed by preculturing for 24 hours. CM-H2DCFDA serving as a cell-permeable indicator of reactive oxygen was added to the cells at a final concentration of 10 μM one hour before ultraviolet ray irradiation. Subsequently, the cells were irradiated with UV-B with a light intensity of 25 mJ/cm^2 and further cultured for 1 hour in an incubator. Then, fluorescence was measured with an excitation wavelength of 495 nm and a fluorescent wavelength of 530 nm using a multimode microplate reader, Varioscan LUX. […]

CC(C)(O)C(OC(=O)/C=C/c1ccc(O)c(O)c1)C(=O)OCc1ccc(O[C@@H]2O[C@H](CO)[C@@H](O)[C@H](O)[C@H]2O)c(O)c1 (stereo partly drawn) [4G3HBE, 2-caffeoyl-3-hydroxy-3-methylbutyric 4′-β-D-glucopyranosyloxy-3′-hydroxybenzyl ester]
activation of p38MAP kinase (phosphorylation) [1]: significantly down-regulated | activation of NF-κB (phosphorylation) [2]: significantly down-regulated | activation of SAPK/JNK (phosphorylation) [3]: significantly down-regulated | antioxidative activity (radical scavenging rate) relative to vitamin C [4]: approximately half that of vitamin C | expression of MMP-1 (protein, detection intensity) [5]: clearly suppressed the expression of MMP-1 | intracellular ROS level [6]: about 1.4%

CC(C)(O)C(OC(=O)/C=C/c1ccc(O)c(O)c1)C(=O)OCc1ccc(O[C@@H]2O[C@H](CO)[C@@H](O)[C@H](O)[C@H]2O)cc1 (stereo partly drawn) [4GBE, 2-caffeoyl-3-hydroxy-3-methylbutyric 4′-β-D-glucopyranosyloxybenzyl ester]
activation of p38MAP kinase (phosphorylation) [1]: significantly down-regulated | activation of NF-κB (phosphorylation) [2]: significantly down-regulated | activation of SAPK/JNK (phosphorylation) [3]: significantly down-regulated | antioxidative activity (radical scavenging rate) relative to vitamin C [4]: approximately half that of vitamin C | expression of MMP-1 (protein, detection intensity) [5]: clearly suppressed the expression of MMP-1 | intracellular ROS level [6]: about 1.4%
